Experimental data as given in patent publication WO2016087994A1, “Btk inhibitors to treat solid tumors through modulation of the tumor microenvironment” (dated 2016).
pEC50, pIC50: −log10 of the molar value. “Also recorded” adds a separate entry of the source. Read-outs that look alike come from different tables or passages of the source.

How the values were obtained:
[1] = system: NK cells with rituximab-coated DHL4 lymphoma cells; experiment: Rituximab-dependent NK cell degranulation (CD107a); assay type: cell-based, human
Itk kinase = target: T1, Itk kinase (Homo sapiens, UniProt Q08881); experiment: Kinome screen, Itk; assay type: biochemical; conditions: see Table 2 (missing)
T1 construct: Life Technologies (performed the screen, or the value is from the literature)
T1 sequence (Q08881 whole entry): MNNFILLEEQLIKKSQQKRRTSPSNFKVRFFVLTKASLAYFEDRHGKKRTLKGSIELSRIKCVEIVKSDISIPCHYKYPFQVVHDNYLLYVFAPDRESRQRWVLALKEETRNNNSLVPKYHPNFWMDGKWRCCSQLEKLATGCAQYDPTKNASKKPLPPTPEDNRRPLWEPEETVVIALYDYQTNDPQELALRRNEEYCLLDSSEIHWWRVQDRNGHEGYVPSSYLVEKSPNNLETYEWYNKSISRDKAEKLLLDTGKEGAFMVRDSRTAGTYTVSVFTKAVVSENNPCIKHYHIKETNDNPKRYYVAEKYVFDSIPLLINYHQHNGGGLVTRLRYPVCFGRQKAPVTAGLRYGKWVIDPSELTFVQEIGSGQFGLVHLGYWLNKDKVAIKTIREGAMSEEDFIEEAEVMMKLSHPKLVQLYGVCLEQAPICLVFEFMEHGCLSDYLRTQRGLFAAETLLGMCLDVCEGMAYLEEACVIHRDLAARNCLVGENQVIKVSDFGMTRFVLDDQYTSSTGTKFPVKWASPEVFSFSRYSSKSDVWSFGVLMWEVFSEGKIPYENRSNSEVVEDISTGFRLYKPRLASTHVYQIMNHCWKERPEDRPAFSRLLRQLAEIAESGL

[2] = system: CD8 + T cells with B lymphoblast targets; experiment: Cytotoxic T cell (CTL) assay; assay type: cell-based; conditions: 500 nM, relative to vehicle
[3] = Glutathione binding in vitro; assay type: in vitro ADME
[4] = system: GPVI platelet aggregation; experiment: GPVI (convulxin-induced) human platelet aggregation; assay type: cell-based
CD8 + T cells [5] = experiment: CD8+ T cell IFN-γ levels; assay type: cell-based; conditions: relative to vehicle
CXCL12 and CCL2 = experiment: Plasma chemokines in treated CLL patients; assay type: in vivo, human
[6] = system: PBMC subsets (MDSC, NK cells); experiment: Peripheral blood cell subsets in CLL patients by flow cytometry; assay type: in vivo, human; conditions: C1D28, C2D28
hepatocytes = experiment: Metabolism in hepatocytes with 14C-labeled Formula (II); assay type: in vitro ADME, mouse, rat, dog, rabbit, monkey, and human
A3 adenosine receptor = A3 adenosine receptor (Homo sapiens, UniProt P0DMS8)
Sequence of A3 adenosine receptor (P0DMS8 whole entry): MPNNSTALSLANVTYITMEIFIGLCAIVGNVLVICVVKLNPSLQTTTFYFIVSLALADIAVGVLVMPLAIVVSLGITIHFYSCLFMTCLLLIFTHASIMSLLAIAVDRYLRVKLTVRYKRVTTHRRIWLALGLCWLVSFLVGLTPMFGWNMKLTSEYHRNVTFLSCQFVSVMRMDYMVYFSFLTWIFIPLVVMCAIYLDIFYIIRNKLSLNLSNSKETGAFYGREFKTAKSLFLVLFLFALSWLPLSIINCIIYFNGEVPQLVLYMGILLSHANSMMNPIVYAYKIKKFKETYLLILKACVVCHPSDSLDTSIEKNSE

apoptotic B-CLL = experiment: Apoptosis of B-CLL cells in treated CLL patients; assay type: in vivo, human
[7] = Respiratory function study; assay type: in vivo, rats; conditions: doses through 300 mg/kg
CYP3A4 = CYP3A4 (Homo sapiens, UniProt P08684); experiment: CYP metabolism (loss of parent drug); assay type: in vitro ADME; conditions: in vitro
Sequence of CYP3A4 (P08684 whole entry): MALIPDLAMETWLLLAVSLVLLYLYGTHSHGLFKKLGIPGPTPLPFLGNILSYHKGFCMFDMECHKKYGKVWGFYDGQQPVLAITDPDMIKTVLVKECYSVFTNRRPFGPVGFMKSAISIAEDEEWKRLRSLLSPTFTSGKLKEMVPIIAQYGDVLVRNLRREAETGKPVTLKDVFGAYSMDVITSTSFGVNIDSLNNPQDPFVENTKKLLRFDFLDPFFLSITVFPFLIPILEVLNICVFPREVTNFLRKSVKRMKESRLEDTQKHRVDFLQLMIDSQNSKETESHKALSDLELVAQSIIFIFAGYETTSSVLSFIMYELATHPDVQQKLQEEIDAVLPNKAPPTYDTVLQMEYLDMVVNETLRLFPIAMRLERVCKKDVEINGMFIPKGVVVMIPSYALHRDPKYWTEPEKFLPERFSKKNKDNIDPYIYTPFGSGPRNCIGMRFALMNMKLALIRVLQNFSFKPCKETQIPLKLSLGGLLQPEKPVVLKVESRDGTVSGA

[8] = system: B cell receptor (CD69 on CD19+ B cells); experiment: Inhibition of BCR signaling (CD69) on B cells in whole blood; assay type: cell-based; conditions: Homo sapiens, 18 h
[9] = system: NK cells with trastuzumab-coated HER18 breast cancer cells; experiment: Trastuzumab-dependent NK cell degranulation (CD107a); assay type: cell-based, human; conditions: trastuzumab-stimulated
[10] = system: rituximab-coated Raji cells; experiment: Rituximab ADCC, chromium release, Raji targets; assay type: cell-based, human; conditions: 1 μM; healthy donor NK cells / Raji
[11] = system: KPC pancreatic tumors (KRAS, p53); experiment: KPC genetic pancreatic cancer model; assay type: in vivo, mouse
primary CLL cells = experiment: Rituximab ADCC, chromium release, primary CLL targets; assay type: cell-based, human; conditions: 1 μM; NK cells from CLL patients, autologous CLL cells
[12] = system: KrasG12D;Trp53R172H;Pdx1-Cre (KPC) derived pancreatic tumor; experiment: Orthotopic pancreatic cancer model (KPC-derived cell line); assay type: in vivo, C57BL/6 mice; conditions: oral 15 mg/kg
[13] = system: NK cells with trastuzumab-coated HER18 breast cancer cells; experiment: Trastuzumab-dependent NK cell IFN-γ secretion; assay type: cell-based, human; conditions: trastuzumab-stimulated
CD4 + T cells = experiment: Th17 and Treg development of CD4+ T cells; assay type: cell-based
[14] = In vivo metabolism in plasma, bile and urine; design: species or system rats, dogs, and monkeys; conditions: bile, urine, preliminary
CD8 + T cells [15] = experiment: CD8+ T cell viability; assay type: cell-based; conditions: higher concentrations of ibrutinib; any concentration of Formula (II)
BTK = target: T2, BTK (Mus musculus, UniProt P35991); experiment: BTK occupancy in MDSCs of tumor bearing PDA mice; assay type: in vivo; conditions: 15 mg/kg BID, Day 8, 4 hours post dose, N=5
T2 construct: MDSCs were purified from tumor bearing PDA mice; from tissue; host or cells: granulocytic and monocytic MDSCs from tumor-bearing PDA mice
T2 sequence (P35991 whole entry): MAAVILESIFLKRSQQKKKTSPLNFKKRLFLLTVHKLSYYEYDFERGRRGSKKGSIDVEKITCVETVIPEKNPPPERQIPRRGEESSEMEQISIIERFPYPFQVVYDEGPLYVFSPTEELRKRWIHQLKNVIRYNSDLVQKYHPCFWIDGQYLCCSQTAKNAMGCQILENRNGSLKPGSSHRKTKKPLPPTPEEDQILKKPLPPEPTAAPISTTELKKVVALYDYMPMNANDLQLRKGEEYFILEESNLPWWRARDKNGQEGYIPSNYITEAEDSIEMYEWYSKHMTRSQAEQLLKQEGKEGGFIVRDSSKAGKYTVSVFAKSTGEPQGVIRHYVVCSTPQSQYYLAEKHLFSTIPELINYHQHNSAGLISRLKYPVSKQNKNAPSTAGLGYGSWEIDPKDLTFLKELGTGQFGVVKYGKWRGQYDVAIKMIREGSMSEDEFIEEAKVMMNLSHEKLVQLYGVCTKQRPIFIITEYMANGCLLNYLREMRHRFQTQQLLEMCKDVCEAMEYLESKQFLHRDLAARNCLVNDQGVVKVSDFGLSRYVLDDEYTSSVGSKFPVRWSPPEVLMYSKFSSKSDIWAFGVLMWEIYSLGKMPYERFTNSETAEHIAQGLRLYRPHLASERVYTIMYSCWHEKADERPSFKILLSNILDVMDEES

[16] = system: KPC derived mouse pancreatic cancer cells; experiment: KPC-derived mouse pancreatic cancer cells injected into pancreas, Formula (II) and/or gemcitabine; assay type: in vivo; conditions: Formula (II) 15 mg/kg/BID oral; gemcitabine 15 mg/kg IV every 4 days x3
[17] = Cardiovascular function study in telemeterized dogs; assay type: in vivo, male beagle dogs; conditions: single doses through 30 mg/kg
ID8 ovarian cancer = experiment: ID8 syngeneic orthotopic ovarian cancer model; assay type: in vivo, mouse; conditions: 15 mg/kg/BID oral
[18] = system: NK cells (CD56+/CD107a+) with MEC-1 cells; experiment: Obinutuzumab-stimulated NK cell degranulation in whole blood; assay type: cell-based, human; conditions: obinutuzumab 1 μg/mL; 0.1, 1, 10 μM
KrasLA2 NSCLC tumors = experiment: KrasLA2 genetic NSCLC model; assay type: in vivo, mouse
[19] = system: human platelet-mediated thrombosis; experiment: In vivo human platelet thrombus formation after laser injury in VWF HA1 mice; design: species or system human platelets in VWF HA1 mice
[20] = system: EGF receptor phosphorylation (p-EGFR), A431 cells; experiment: In vitro EGFR phosphorylation in A431 cells; assay type: cell-based, human; conditions: 10 μM
[21] = Brain and CSF pharmacokinetics in Sprague-Dawley rats; assay type: in vivo; conditions: rat
relapsed/refractory CLL = experiment: Clinical study of Formula (II) in relapsed/refractory CLL
CYP enzymes = experiment: Nonclinical CYP interaction studies; assay type: in vitro ADME
[22] = Functional observation battery; assay type: in vivo, rats; conditions: doses through 300 mg/kg

Q: Which results are given for `CC#CC(=O)N1CCC[C@H]1c1nc(-c2ccc(C(=O)Nc3ccccn3)cc2)c2c(N)nccn12` [Formula (II), (<S)-4-(8-amino-3-(l-(but-2-ynoyl)pyrrolidin-2-yl)imidazo[l,5-a]pyrazin-l-yl)-N-(pyridin-2-yl)benzamide]?
A: reduction of NK cell degranulation ([1]; rituximab-stimulated, 240 min): < 2%; NK cell degranulation (in words) ([1]; rituximab, Formula (II) 1 μM): did not inhibit; inhibition of Itk (in words) (Itk kinase): not a potent inhibitor of Itk kinase; CD8+ T cell function as % cytotoxicity (in words) [2]: no effect on CD8 + T cell function; glutathione binding (in words) [3]: binds to glutathione but does not deplete glutathione; inhibition of GPVI platelet aggregation (in words) [4]: does not; pIC50 ([4]; Homo sapiens, Platelet, read-out: IC50, GPVI platelet aggregation): 5.94; CD8+ T cell function as IFN-γ level (in words) (CD8 + T cells [5]): no effect on CD8 + T cell function; CCL2 levels (in words) (CXCL12 and CCL2): significant decrease; CXCL12 levels (in words) (CXCL12 and CCL2): significant decrease; MDSC (monocytic) change vs ALC (in words) [6]: patients with decreasing ALC % had increasing MDSC (monocytic) %; NK cell change vs ALC (in words) [6]: patients with decreasing ALC % had increasing NK cell %; metabolites in hepatocytes (in words) (hepatocytes): two mono-oxidized metabolites and a glutathione conjugate; also recorded: No unique human metabolite was identified; activity in 80-target binding screen (in words) (A3 adenosine receptor): significant activity only against the A3 adenosine receptor; samples with baseline change in apoptosis greater than 25% (apoptotic B-CLL; cleaved PARP+, Caspase 3+, CD19+, CD5+): 82 % of samples; apoptosis of B-CLL (in words) (apoptotic B-CLL; human, in vivo): increased apoptotis; respiratory function (in words) [7]: no treatment-related adverse effects; CYP metabolism (in words) (CYP3A4): metabolized by CYP3A4; pEC50 [8]: 8.09; NK cell degranulation (in words) [9]: no inhibitory effect; inhibition of rituximab ADCC (in words) [10]: not inhibited; survival at day 14 ([11]; 15 mg/kg BID oral): 6/6; survival at day 28 ([11]; 15 mg/kg BID oral): 5/6; tumor growth and survival (in words) ([11]; 15 mg/kg BID oral, combination with gemcitabine 50 mg/kg IV): substantially slowed pancreatic cancer growth and increased animal survival; also recorded: compared favorably with gemcitabine alone; tumor volume, day 28, average ([11]; 15 mg/kg BID oral, predose 165): 272 mm3; CD8+ cells (in words) ([11]; tumor tissue): significant increase in CD8 + cells; MDSCs (Gr1+Ly6CHi) (in words) ([11]; tumor tissue): significantly reduced; TAMs (CD11b+Ly6ClowF4/80+Csf1r+) (in words) ([11]; tumor tissue): significantly reduced; Tregs (CD4+CD25+FoxP3+) (in words) ([11]; tumor tissue): significantly reduced; inhibition of rituximab ADCC (in words) (primary CLL cells): not inhibited; immature myeloid infiltrate (in words) [12]: decreased immature myeloid infiltrate; immunosuppressive tumor associated myeloid cells and Tregs (in words) [12]: reduce immunosuppressive tumor associated myeloid cells and Tregs; number of Tregs (in words) [12]: reduced the number of immunospressive Tregs; number of tumor associated macrophages (in words) [12]: reduced the number of tumor associated macrophages; tumor burden (in words) [12]: significantly reduced tumor burden; tumor volume (in words) ([12]; vs vehicle): statistically significant reductions in tumor volume; NK cell cytokine release (in words) [13]: no inhibitory effect; Th17 development (in words) (CD4 + T cells): no adverse effects; Treg development (in words) (CD4 + T cells): no adverse effects; metabolic processes in vivo (in words) [14]: oxidation, glutathione binding, and hydrolysis; CD8+ T cell viability (in words) (CD8 + T cells [15]): not observed; BTK occupancy in granulocytic and monocytic MDSC (in words) (BTK): Complete BTK occupancy; reduction in tumor size (in words) [16]: efficacy alone; cardiovascular/ECG/body temperature (in words) [17]: no meaningful changes in body temperature, cardiovascular, or electrocardiographic (ECG) (including QT interval) parameters; B cells (in words) (ID8 ovarian cancer): significant reduction in total B cells; also recorded: significant reduction in immunosuppressive B cells; B regulatory cells (Bregs) (in words) (ID8 ovarian cancer): significant reduction in B regulatory cells (Bregs); CD8+ T cells (in words) (ID8 ovarian cancer): increase in CD8 + T cells; ID8 ovarian cancer growth (in words) (ID8 ovarian cancer): impairs ID8 ovarian cancer growth; tumor associated Tregs (in words) (ID8 ovarian cancer): significant reduction in immunosuppressive tumor associated Tregs; tumor-associated lymphocytes (in words) (ID8 ovarian cancer): significant reduction in immunosuppressive tumor-associated lymphocytes; obinutuzumab-stimulated NK cell degranulation (in words) [18]: minimal effect; number of tumors (in words) (KrasLA2 NSCLC tumors; 15 mg/kg): fewer overall tumors; tumor volumes vs vehicle (in words) (KrasLA2 NSCLC tumors; 15 mg/kg): significant decrease in tumor volumes; MDSCs (in words) (KrasLA2 NSCLC tumors; mouse, in vivo): significant reduction in immunosuppressive tumor associated MDSCs; TAMs (in words) (KrasLA2 NSCLC tumors; mouse, in vivo): significant reduction in immunosuppressive tumor associated TAMs; Tregs (in words) (KrasLA2 NSCLC tumors; mouse, in vivo): significant reduction in immunosuppressive tumor associated Tregs; effect on thrombus formation (in words) [19]: does not interfere with thrombus formation; also recorded: no significant effect on human platelet-mediated thrombus formation; inhibition of EGFR phosphorylation (in words) ([20]; A431): no inhibition; EGF-induced p-EGFR inhibition ([20]; 2 h, EGF 100 ng/mL 5 min): 7%; Kp at 0.5 h ([21]; brain, flushed brains, 5 or 30 mg/kg/day oral gavage, 30 min after dosing, read-out: brain concentration relative to matched plasma): 0.03 to 0.04; Kp at 0.5 h ([21]; csf, 5 and 30 mg/kg/day oral gavage, read-out: CSF concentration relative to plasma): 0.01 to 0.02; levels in brain and CSF (in words) ([21]; in vivo): crosses the blood-brain barrier; also recorded: low but detectable levels; time to same median % change in SPD (relapsed/refractory CLL; CLL, compared with ibrutinib): 7 months; SPD change vs ibrutinib (in words) (relapsed/refractory CLL; FIG. 37): decreases more rapidly; absolute lymphocyte count (ALC) change vs ibrutinib (in words) (relapsed/refractory CLL; FIG. 37): much smaller relative increase and much faster decrease in absolute lymphocyte count (ALC); adverse event grade (in words) (relapsed/refractory CLL; human, in vivo): only grade 1 AEs were observed; disease progression in 17p deletion patients (in words) (relapsed/refractory CLL; human, in vivo): no 17p patients have progressed; dose-limiting toxicities (in words) (relapsed/refractory CLL; human, in vivo): No DLTs were observed; also recorded: has not demonstrated any DLTs to date; lymphocytosis (in words) (relapsed/refractory CLL; human, in vivo): A lack of lymphocytosis; treatment-related serious adverse events (in words) (relapsed/refractory CLL; human, in vivo): No treatment-related serious adverse events (SAEs) were observed; CYP drug-drug interaction potential (in words) (CYP enzymes): very unlikely to cause clinical drug-drug interactions; neurobehavioral effects / body temperature (in words) [22]: no adverse effects on neurobehavioral effects or body temperature
